Assay results from patent US4088772A, “Methanodibenzocycloheptapyrroles” (E. I. Du Pont de Nemours and Company, priority 1975, dated 1978).
Counter-ions that a name gives are not always drawn. Like-named read-outs stand apart in the source and are kept apart here.

Columns and labels:
[1] = test system: phenylquinone-induced writhing; test: Phenylquinone writhing test (analgesia); format: in vivo, mouse (Carworth CF1 S female); conditions: Mus musculus
Text: This mouse test is predictive of analgesic response in humans. [E. Siegmund, R. Cadmus and G. Lee, Proc. Soc.
ED50 values were obtained graphically from the data.

in vivo = conditions: mouse, in vivo, po
Method: (§1) Groups of five Carworth CF1 S female mice, 16-20 g each, were fasted 16-22 hours before use. The mice were put in opaque plastic "shoe-box" cages 15-30 min. before injection, and then treated orally with 4, 12, 36, 108 and 324 mg/kg of the compound to be tested as a 13 mg/ml solution in 1% aqueous distilled water solution of methylcellulose (Methocel®). Each dose was given in a standard volume of 0.45 ml. Observations were made at 0.5, 2 and 24 hours after dosing. ED50 values were calculated for each parameter including death (LD50). The ED50 and LD50 values are the doses at which 50% of the naimals would be expected to respond.
(§2) The mouse is placed on a stainless steel wire mesh screen (8 × 12 inches, 3 mesh per inch, 1/4 inch mesh openings) "shoe-box" lid (1 inch high) and is observed for normal activities, such as nose movements, head movements with apparent visual examination of the area, and/or walking around on the screen. Absence of or marked depression of these activities for 5 seconds constitutes loss of exploratory activity.
(§3) The mouse is picked up by the tail and placed on the screen with its head facing the observer. Bilateral eyelid closure of 50% or more two seconds after placement is considered ptosis.
(§4) The mouse is placed with its front paws on the edge of a stainless steel "shoe-box" cover, 1 inch high, covered with adhesive tape. Failure to remove both paws from the cover's edge within 5 seconds constitutes catatonia.
(§5) The observer gently strokes the abdominal musculature of the mouse with thumb and forefinger. Flaccidity (or rarely, tenseness) is recorded.
(§6) The mouse is gently swung by the tail toward a horizontal 12 gauge wire tautly stretched 25 cm above the bench. After the mouse grasps the wire with its forepaws, its posterior end is held directly below the wire. A normal mouse grasps the wire with its forepaws and immediately lifts its hind limbs to the wire. Failure to grasp the wire with the forepaws in both trials constitutes loss of the grip reflex; failure to lift the hind limbs to grasp the wire with at least one hind paw within 5 seconds constitutes loss of the lift reflex.
(§7) The mouse is placed on the bar 10-20 cm horizontally and 9 cm vertically from a Galton whistle adjusted for 13 kc (5 mm on the whistle scale) and is subjected to several short bursts of sound.
(§8) An effective tranquilizer should induce little or no tremor response. […] Tremors include fine or coarse and intermittent or continuous tremors.

female white mice = test: animal or person; conditions: Mus musculus, po, oral, mice
Method: as §1, §2, §3, §4, §5, §6, §7, §8

[2] = read-out: Catatonia ED50, Table III
[3] = read-out: Exploratory Loss Visual ED50, Table III
[4] = read-out: Muscle Tone ED50, Table III
[5] = read-out: Ptosis ED50, Table III
[6] = read-out: Reflexes Grip ED50, Table III
[7] = read-out: Reflexes Lift ED50, Table III
[8] = read-out: Reflexes Pinna ED50, Table III
[9] = read-out: Catatonia ED50, Table 1
[10] = read-out: Exploratory Loss Visual ED50, Table 1
[11] = read-out: Muscle Tone ED50, Table 1
[12] = read-out: Reflexes Grip ED50, Table 1
[13] = read-out: Reflexes Lift ED50, Table 1
[14] = read-out: Reflexes Pinna ED50, Table 1

Structure (SMILES) | LD50 at 24 h (in vivo) [mg/kg] | ED50 (female white mice; [2]) [mg/kg] | ED50 (female white mice; [3]) [mg/kg] | ED50 (female white mice; [4]) [mg/kg] | ED50 (female white mice; [5]) [mg/kg] | ED50 (female white mice; [6]) [mg/kg] | ED50 (female white mice; [7]) [mg/kg] | ED50 (female white mice; [8]) [mg/kg] | ED50 (female white mice; [9]) [mg/kg] | ED50 (female white mice; [10]) [mg/kg] | ED50 (female white mice; [11]) [mg/kg] | ED50 (female white mice; read-out: Ptosis ED50, Table 1) [mg/kg] | ED50 (female white mice; [12]) [mg/kg] | ED50 (female white mice; [13]) [mg/kg] | ED50 (female white mice; [14]) [mg/kg] | further results
[N-]=[N+]=Nc1ccc2c(c1)[C@]13C[C@H]2c2ccccc2[C@H]1CN(CC1CCCC1)C3 (relative stereo) [Example 82, 5-Azido-2-cyclopentylmethyl-2,3,8,12b-tetrahydro-1H-3a,8-methanodibenzo[3,4:6,7]cyclohepta[1,2-c]-pyrrole] | > 324 | 60 | 7 | 20 | 7 | > 324 | 60 | 36 |  |  |  |  |  |  |  | ED50 ([1]; po, Table III, mice): < 130 mg/kg
c1ccc2c(c1)C1CC3(CN(CC4CC4)CC23)c2ccccc21 (centres unmarked) [Example 6, 2-Cyclopropylmethyl-2,3,8,12b-tetrahydro-1H-3a,8-methanodibenzo[3,4:6,7]cyclohepta[1,2-c]pyrrole] | 300 |  |  |  |  |  |  |  | 20 | 20 | 12 | 20 | 100 | 20 | 7 | ED50 ([1]; Table 1, oral, mice): 4.5 mg/kg; ED50 (in vivo; Tremors ED50, Table 1, mice): 100 mg/kg
CNC(=O)ON=Cc1ccc2c(c1)[C@]13C[C@H]2c2ccccc2[C@H]1CN(CC1CCCC1)C3 (relative stereo) [Example 84, 5-Formyl-2-cyclopentylmethyl-2,3,8,12b-tetrahydro-1H-3a,8-methanodibenzo[3,4:6,7]cyclohepta[1,2-c]pyrrole Oxime-O-(N-methylcarbamate) Hydrochloride] | > 324 | 100 | 60 | 100 | 36 | > 324 | 200 | 100 |  |  |  |  |  |  |  | ED50 ([1]; Table III, oral, mice): < 130 mg/kg
C1=CCC(CN2CC3c4ccccc4C4CC3(C2)c2ccccc24)=CC1 (centres unmarked) [Example 28, 2-(1,4-Cyclohexadienylmethyl)-2,3,8,12b-tetrahydro-1H-3a,8-methanodibenzo[3,4:6,7]cyclohepta[1,2-c]pyrrole] | > 324 |  |  |  |  |  |  |  | 24 | 29 | 37 | 17 | > 324 | 57 | 32 | ED50 ([1]; po, Table 1, mice): 8.6 mg/kg; ED50 (in vivo): > 324 mg/kg
Brc1ccc2c(c1)[C@]13C[C@H]2c2ccccc2[C@H]1CN(CC1CCCC1)C3 (relative stereo) [Example 70, 5-Bromo-2-cyclopentylmethyl-2,3,8,12b-tetrahydro-1H-3a,8-methanodibenzo[3,4:6,7]cyclohepta[1,2-c]pyrrole Hydrochloride] | > 324 | 12 | 20 | 12 | 7 | > 324 | 20 | 7 |  |  |  |  |  |  |  | ED50 ([1]; po, Table III, mice): < 130 mg/kg
CN1CC2c3ccccc3C3CC2(C1)c1ccccc13 (centres unmarked) [Example 1, 2-Methyl-2,3,8,12b-tetrahydro-1H-3a,8-methanodibenzo[3,4:6,7]cyclohepta[1,2-c]pyrrole] | 150 |  |  |  |  |  |  |  | 30 | 50 | 100 | 50 | 150 | 30 | 30 | ED50 ([1]; Table 1, oral, mice): 5.1 mg/kg; ED50 (in vivo; Tremors ED50, Table 1, mice): 30 mg/kg
O=[N+]([O-])c1ccc2c(c1)[C@]13C[C@H]2c2ccccc2[C@H]1CN(CC1CCCC1)C3 (relative stereo) [Example 63, 5-Nitro-2-cyclopentylmethyl-2,3,8,12b-tetrahydro-1H-3a,8-methanodibenzo[3,4:6,7]cyclohepta[1,2-c]pyrrole Hydrochloride] | > 324 | 200 | 12 | 36 | 7 | > 324 | 100 | 20 |  |  |  |  |  |  |  | 
